The values below come from PubChem BioAssay AID623925 (Vanderbilt Specialized Chemistry Center, 2012).

Active and inactive are the calls of the source.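 The calls were made as follows: active = compounds whose calcium response changes with concentration, giving a dose-dependent curve as judged by the depositor; inactive = the rest, with no dose-dependent response.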

The target in the assay is Muscarinic acetylcholine receptor M2 (Homo sapiens) (UniProt P08172). Briefly: human M2 receptor positive allosteric modulation, SAR follow-up, selectivity assay for M4 PAM optimization, CHO cells, Gqi5 chimera, calcium mobilization (AID 623925). Conditions: CHO hM2/Gqi5 calcium mobilization, ACh EC20 potentiation; for % ACh max response: at 30 µM (top of the series). Background: Calcium flux is commonly read through the fluorescence of an indicator in the cells.
Sequence of Muscarinic acetylcholine receptor M2 (Homo sapiens) (P08172 whole entry, looked up): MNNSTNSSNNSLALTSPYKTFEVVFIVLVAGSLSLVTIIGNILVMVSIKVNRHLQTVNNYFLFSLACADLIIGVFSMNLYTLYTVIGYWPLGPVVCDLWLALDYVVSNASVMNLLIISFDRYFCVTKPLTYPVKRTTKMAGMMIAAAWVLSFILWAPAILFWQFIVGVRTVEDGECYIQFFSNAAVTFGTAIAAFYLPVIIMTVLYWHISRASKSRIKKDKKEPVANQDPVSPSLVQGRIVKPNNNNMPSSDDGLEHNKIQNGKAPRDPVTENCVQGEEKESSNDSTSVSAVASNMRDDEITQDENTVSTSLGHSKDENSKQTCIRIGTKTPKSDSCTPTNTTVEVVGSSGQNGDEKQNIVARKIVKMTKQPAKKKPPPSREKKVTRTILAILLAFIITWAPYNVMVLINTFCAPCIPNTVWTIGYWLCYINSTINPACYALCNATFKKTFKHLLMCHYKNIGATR

As to `Cc1nc2sc(C(=O)NCc3ccccc3)c(N)c2c(C)c1Cl`, the result was inactive.

In the case of `Cc1nc2sc(C(=O)NCc3ccc4c(c3)OCO4)c(N)c2c(C)c1Cl`, the result was inactive.

On to `Cc1nc2sc(C(=O)NCCc3ccncc3)c(N)c2c(C)c1Cl`, for which the “% ACh max response” value is “inactive”.

On to `Cc1nc2sc(C(=O)NCc3ccncn3)c(N)c2c(C)c1Cl`, for which the “% ACh max response” value is “inactive”.

`Cc1nc2sc(C(=O)NC3CC3)c(N)c2c(C)c1Cl`: the EC50 is 548 nM.

On to `Cc1nc2sc(C(=O)NCc3ccncc3)c(N)c2c(C)c1Cl`, for which the outcome was inactive.

Take `COc1ccc(C)c2sc(NC(=O)c3ccncc3)nc12`: the “% ACh max response” value is “inactive”.

As for `Cc1nc2sc(C(=O)NCc3nccs3)c(N)c2c(C)c1Cl`, the “% ACh max response” value was “inactive”.

Consider `Cc1nc2sc(C(=O)NCc3cccc(F)c3F)c(N)c2c(C)c1Cl`, for which the “% ACh max response” value was “inactive”.

On to `Cc1nc2sc(C(=O)NCc3cccnc3)c(N)c2c(C)c1Cl`, for which the result was inactive.

The term EC50 denotes the concentration giving half of the maximal effect.
